US20210198277A1, “AMINE-SUBSTITUTED ARYL OR HETEROARYL COMPOUNDS” (Epizyme, Inc., priority 2016, published 2021)

Experiments:
EHMT1 = target: T1, EHMT1 (Homo sapiens, UniProt Q9H9B1); assay: EHMT1 enzyme assay on peptide substrate (EHMT1 PEP); assay type: biochemical; details: Table III; read-out: EHMT1 PEP (IC50 μM)
T1 sequence (Q9H9B1 1-1298): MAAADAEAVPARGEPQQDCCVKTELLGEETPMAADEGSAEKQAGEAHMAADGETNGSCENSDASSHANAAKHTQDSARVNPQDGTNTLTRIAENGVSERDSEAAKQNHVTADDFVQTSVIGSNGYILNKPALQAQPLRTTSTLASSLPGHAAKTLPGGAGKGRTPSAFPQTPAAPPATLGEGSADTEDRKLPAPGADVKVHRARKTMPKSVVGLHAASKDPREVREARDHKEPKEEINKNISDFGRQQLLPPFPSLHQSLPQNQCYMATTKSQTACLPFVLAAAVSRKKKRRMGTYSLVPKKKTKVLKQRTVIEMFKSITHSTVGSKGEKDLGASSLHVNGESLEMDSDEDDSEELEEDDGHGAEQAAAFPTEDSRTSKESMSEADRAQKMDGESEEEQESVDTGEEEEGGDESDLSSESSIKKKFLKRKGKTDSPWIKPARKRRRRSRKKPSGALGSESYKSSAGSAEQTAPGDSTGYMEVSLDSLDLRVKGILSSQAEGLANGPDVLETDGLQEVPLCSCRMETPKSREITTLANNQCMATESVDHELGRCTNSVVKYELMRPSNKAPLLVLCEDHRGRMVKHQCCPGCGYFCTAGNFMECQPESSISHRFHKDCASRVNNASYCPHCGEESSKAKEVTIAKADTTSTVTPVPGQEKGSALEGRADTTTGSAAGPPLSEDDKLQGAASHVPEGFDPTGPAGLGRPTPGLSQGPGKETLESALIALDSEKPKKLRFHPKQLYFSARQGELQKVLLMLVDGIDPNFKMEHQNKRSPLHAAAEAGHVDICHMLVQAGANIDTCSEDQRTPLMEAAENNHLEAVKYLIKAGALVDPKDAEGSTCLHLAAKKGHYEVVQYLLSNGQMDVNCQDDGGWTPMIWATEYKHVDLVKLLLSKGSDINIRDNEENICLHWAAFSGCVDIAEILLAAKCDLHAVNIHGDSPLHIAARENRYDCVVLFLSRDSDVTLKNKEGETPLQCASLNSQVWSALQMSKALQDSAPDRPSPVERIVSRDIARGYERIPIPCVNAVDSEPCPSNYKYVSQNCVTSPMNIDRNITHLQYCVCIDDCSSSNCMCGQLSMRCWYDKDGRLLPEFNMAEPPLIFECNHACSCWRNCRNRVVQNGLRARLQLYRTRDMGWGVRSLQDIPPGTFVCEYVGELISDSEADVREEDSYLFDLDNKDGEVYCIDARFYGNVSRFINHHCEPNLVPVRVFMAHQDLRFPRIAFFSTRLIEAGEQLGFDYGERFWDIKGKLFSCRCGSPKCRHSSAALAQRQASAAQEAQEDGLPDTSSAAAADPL

human EHMT2 913-1193 = target: T2, human EHMT2 913-1193 (Homo sapiens, UniProt Q96KQ7); assay: EHMT2 enzyme assay on histone peptide substrate (EHMT2 PEP); assay type: biochemical; details: Table III; read-out: EHMT2 PEP (IC50 μM)
T2 construct: recombinant purified human EHMT2 913-1193, Viva; purchased Viva
T2 sequence (Q96KQ7 913-1193): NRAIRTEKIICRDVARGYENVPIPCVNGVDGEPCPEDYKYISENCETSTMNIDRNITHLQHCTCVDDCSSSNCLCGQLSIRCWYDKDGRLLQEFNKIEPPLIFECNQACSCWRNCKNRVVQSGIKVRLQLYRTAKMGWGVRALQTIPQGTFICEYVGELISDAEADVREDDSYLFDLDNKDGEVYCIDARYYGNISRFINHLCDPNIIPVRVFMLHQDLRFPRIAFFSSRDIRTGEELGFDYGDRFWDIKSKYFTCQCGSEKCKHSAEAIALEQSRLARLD
Summary of the method: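 10-pt 3-fold series, 50 μM top final, 2% DMSO; 30 min preinc w/ 0.031 nM enzyme; pH 7.5 Bicine/TCEP buffer; ^3H-SAM + biotin-histone peptide, 60 min RT; SAM quench; streptavidin Flashplate capture, TopCount.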

Structure (SMILES)	IC50 (EHMT1)	IC50 (human EHMT2 913-1193)
CNc1cc(C)nc(Nc2cc(F)c(OC)c(OCCCN3CCCC3)c2)n1 [Compound 301, N2-(3-fluoro-4-methoxy-5-(3-(pyrrolidin-1-yl)propoxy)phenyl)-N4,6-dimethylpyrimidine-2,4-diamine]	> 10 µM	> 10 µM
CNc1cc(C)nc(Nc2cc(OCCCN3CCCC3)c(OC)cc2F)n1 [Compound 302, N^2-(2-fluoro-4-methoxy-5-(3-(pyrrolidin-1-yl)propoxy)phenyl)-N^4,6-dimethylpyrimidine-2,4-diamine]	1 to 10 µM	1 to 10 µM
CNc1cc(C)nc(Nc2cc(OCCCN3CCCC3)c(OC)cn2)n1 [Compound 303, N^2-(5-methoxy-4-(3-(pyrrolidin-1-yl)propoxy)pyridin-2-yl)-N^4,6-dimethylpyrimidine-2,4-diamine]	0.1 to 1 µM	< 0.1 µM
COc1cnc(Nc2nccc3[nH]ccc23)cc1OCCCN1CCCC1 [Compound 304]	< 0.1 µM	< 0.1 µM
CNc1ccnc(Nc2cc(OCCCN3CCCC3)c(OC)cn2)c1 [Compound 305, N^2-(5-methoxy-4-(3-(pyrrolidin-1-yl)propoxy)pyridin-2-yl)-N^4-methylpyridine-2,4-diamine]	< 0.1 µM	< 0.1 µM
CNc1nc(C)cc(Nc2cc(OCCCN3CCCC3)c(OC)cn2)n1 [Compound 306, N^4-(5-methoxy-4-(3-(pyrrolidin-1-yl)propoxy)pyridin-2-yl)-N^2,6-dimethylpyrimidine-2,4-diamine]	> 10 µM	1 to 10 µM
CNc1cc(C)nc(Nc2cc(OCCCN3CCCC3)c(OC)cn2)c1 [Compound 307, N^2-(5-methoxy-4-(3-(pyrrolidin-1-yl)propoxy)pyridin-2-yl)-N^4,6-dimethylpyridine-2,4-diamine]	< 0.1 µM	< 0.1 µM
CNc1cc(Nc2cc(OCCCN3CCCC3)c(OC)cn2)cc(C)n1 [Compound 308, N^4-(5-methoxy-4-(3-(pyrrolidin-1-yl)propoxy)pyridin-2-yl)-N^2,6-dimethylpyridine-2,4-diamine]	0.1 to 1 µM	0.1 to 1 µM
CNc1cc(Nc2cc(OCCCN3CCCC3)c(OC)cn2)nc(C)c1F [Compound 309, 5-fluoro-N^2-(5-methoxy-4-(3-(pyrrolidin-1-yl)propoxy)pyridin-2-yl)-N^4,6-dimethylpyridine-2,4-diamine]	< 0.1 µM	< 0.1 µM
COc1cnc(Nc2nc(C)cc3[nH]ccc23)cc1OCCCN1CCCC1 [Compound 310]	0.1 to 1 µM	0.1 to 1 µM
CNc1cc(C)nc(Nc2ccc(OC)c(OCCOC)c2)n1 [Compound 311, N^2-(4-methoxy-3-(2-methoxyethoxy)phenyl)-N^4,6-dimethylpyrimidine-2,4-diamine]	> 10 µM	> 10 µM
CNc1cc(C)nc(Nc2ccc(OC)c(OCCCOC)c2)n1 [Compound 312, N^2-(4-methoxy-3-(3-methoxypropoxy)phenyl)-N^4,6-dimethylpyrimidine-2,4-diamine]	> 10 µM	> 10 µM
CNc1cc(C)nc(Nc2ccc(C3CC3)c(OCCCN3CCCC3)c2)n1 [Compound 313, N^2-(4-cyclopropyl-3-(3-(pyrrolidin-1-yl)propoxy)phenyl)-N^4,6-dimethylpyrimidine-2,4-diamine]	0.1 to 1 µM	0.1 to 1 µM
CNc1ccnc(Nc2ccc(C3CC3)c(OCCCN3CCCC3)c2)n1 [Compound 314, N^2-(4-cyclopropyl-3-(3-(pyrrolidin-1-yl)propoxy)phenyl)-N^4-methylpyrimidine-2,4-diamine]	0.1 to 1 µM	0.1 to 1 µM
CNc1cc(C)nc(Nc2ccc(OC)c(OC[C@H]3C[C@@H](N(C)C)C3)c2)n1 [Compound 316]	0.1 to 1 µM	1 to 10 µM
CNc1cc(C)nc(Nc2ccc(OC)c(O[C@H]3C[C@@H](CN(C)C)C3)c2)n1 [Compound 318, N^2-(3-((1s,3s)-3-((dimethylamino)methyl)cyclobutoxy)-4-methoxyphenyl)-N^4,6-dimethylpyrimidine-2,4-diamine]	> 10 µM	> 10 µM
CCc1nc(Nc2ccc(OC)c(OCCCN3CCCC3)c2)nc(NC)c1F [Compound 319, 6-ethyl-5-fluoro-N^2-(4-methoxy-3-(3-(pyrrolidin-1-yl)propoxy)phenyl)-N^4-methylpyrimidine-2,4-diamine]	0.1 to 1 µM	0.1 to 1 µM
CNc1cc(C2CC2)nc(Nc2ccc(OC)c(OCCCN3CCCC3)c2)n1 [Compound 320, 6-cyclopropyl-N^2-(4-methoxy-3-(3-(pyrrolidin-1-yl)propoxy)phenyl)-N^4-methylpyrimidine-2,4-diamine]	< 0.1 µM	< 0.1 µM
COc1cnc(Nc2cnc3ccccn23)cc1OCCCN1CCCC1 [Compound 321, N-(5-methoxy-4-(3-(pyrrolidin-1-yl)propoxy)pyridin-2-yl)imidazo[1,2-a]pyridin-3-amine]	1 to 10 µM	1 to 10 µM

Now from value to compound:

IC50 (EHMT1)	IC50 (human EHMT2 913-1193)	Structure (SMILES)
0.1 to 1 µM	0.1 to 1 µM	CNc1ccnc(Nc2ccc(OC)c(OCCCN3CC(C)C3)c2)n1 [Compound 423, N^2-(4-methoxy-3-(3-(3-methylazetidin-1-yl)propoxy)phenyl)-N^4-methylpyrimidine-2,4-diamine]
1 to 10 µM	1 to 10 µM	CNc1ccnc(Nc2ccc(OC)c(OCCCN(C)CC3CC3)c2)n1 [Compound 424, N^2-(3-(3-((cyclopropylmethyl)(methyl)amino)propoxy)-4-methoxyphenyl)-N^4-methylpyrimidine-2,4-diamine]
0.1 to 1 µM	0.1 to 1 µM	CNc1ccnc(Nc2ccc(OC)c(OCCCN3CC(OC)C3)c2)n1 [Compound 425, N^2-(4-methoxy-3-(3-(3-methoxyazetidin-1-yl)propoxy)phenyl)-N^4-methylpyrimidine-2,4-diamine]
> 10 µM	> 10 µM	CNc1ccnc(Nc2ccc(OC)c(OCc3cc(C4CC4)on3)c2)n1 [Compound 426, N^2-(3-((5-cyclopropylisoxazol-3-yl)methoxy)-4-methoxyphenyl)-N^4-methylpyrimidine-2,4-diamine]
> 10 µM	> 10 µM	CNc1ccnc(N[C@@H]2CCC[C@H](OCCCN3CCCC3)C2)n1 [Compound 427]
1 to 10 µM	1 to 10 µM	CNc1cc(CC(F)(F)F)nc(Nc2ccc(OC)c(OCCCN3CCCC3)c2)n1 [Compound 428, N^2-(4-methoxy-3-(3-(pyrrolidin-1-yl)propoxy)phenyl)-N^4-methyl-6-(2,2,2-trifluoroethyl)pyrimidine-2,4-diamine]
0.1 to 1 µM	0.1 to 1 µM	CNc1ccnc(Nc2ccc(OC)c(OCCCN3CCC3C)c2)n1 (stereo not shown) [Compound 429, N^2-(4-methoxy-3-(3-(2-methylazetidin-1-yl)propoxy)phenyl)-N^4-methylpyrimidine-2,4-diamine]
> 10 µM	> 10 µM	CCOc1ccc(Nc2nccc(NC)n2)cc1OCCCN1CCCC1 [Compound 430, N^2-(4-ethoxy-3-(3-(pyrrolidin-1-yl)propoxy)phenyl)-N^4-methylpyrimidine-2,4-diamine]
> 10 µM	> 10 µM	CCOc1ccc(Nc2nccc(NC)n2)cc1OCC1CCN(C)C1 (stereo not shown) [Compound 431]
> 10 µM	> 10 µM	CCOc1ccc(Nc2nc(C)cc(NC)n2)cc1OCCCN1CCCC1 [Compound 432, N^2-(4-ethoxy-3-(3-(pyrrolidin-1-yl)propoxy)phenyl)-N^4,6-dimethylpyrimidine-2,4-diamine]
